These results are taken from the NIST ThermoML archive (doi:10.1016/j.fluid.2009.08.016).

The conditions of series [1]: Crystal; DTA.
Series [2] is described as follows: Molar enthalpy of transition or fusion. Conditions: Crystal; DSC.

SMILES strings stand for the structures. Numbers after ± are expanded uncertainties.

With `CC(C)CCC[C@@H](C)[C@H]1CC[C@H]2[C@@H]3CC=C4C[C@@H](O)CC[C@]4(C)[C@H]3CC[C@]12C` [.DELTA.5-cholesten-3β-ol], in series [1], the Normal melting temperature was 148.6 ± 0.5 °C. Also, the “Molar enthalpy of transition or fusion” value in series [2] was 6.81 ± 0.191 kcal/mol.
